The source of these data is patent US20150374673A1, “Combination Therapy for the Treatment of Nosocomial Pneumonia” (priority 2013, published 2015).

Several values for one entry are separate records, joined by “and”; a condition that tells them apart may be missing. Equal entries are not always repeated. Entries after “also recorded” stand apart in the source; their conditions may differ. Where two headings read alike, the source gives them in different places.

What is called MIC is the least concentration at which growth counts as inhibited.

The subject of data set [1] is P. aeruginosa. The data set is described as follows: Neutropenic CD-1 mice with experimental pneumonia (lung infection), exposure response of ceftazidime q2h and avibactam q2h or q8h. It is filed as in vivo, Pseudomonas aeruginosa. The settings on record: for % fT > CT1 q2 / % fT > CT1 q8 / TDD AVI q2h / TDD AVI q8h / log TDD AVI q2h / log TDD AVI q8h: Dose CAZ 16 mg/kg q2h; for % fT > CT1 q2 / % fT > CT1 q8: CT 1 mg/L; for TDD AVI q2h / TDD AVI q8h / log TDD AVI q2h / log TDD AVI q8h: static effect; for factor by which daily dose for static effect was lower q2h than q8h: with ceftazidime q2h. As to the method:
CD-1 neutropenic mice were infected with approx. 10^6 cfu in the lung by instillation through the nares under light anaesthesia. […] For avibactam the % time of the dosing interval above a virtual in vivo threshold concentration, CT, % fT>CT, were calculated (CT of 0.25, 1 and 4 mg/L).
Outbred female CD-1 mice (Charles River, Netherlands), 4 to 5 weeks old, weighing 20 to 25 g were used in the experiments. Granulocytopenia was induced by two doses of cyclophosphamide s.c. four days (150 mg/kg) and one day (100 mg/kg) before the infection experiment.
Neutropenic mice were infected with one P. aeruginosa strain per animal. 0.05 mL of bacterial suspension consisting of approximately 10^5-10^6 bacteria was inoculated intra-nasally with a syringe under light anaesthesia with isoflurane. […] All dosing regimens were performed in at least two animals. At t=0 h, 2 mice were humanely sacrificed to determine the initial inoculum just before starting treatment. All other animals were sacrificed at t=24 h unless the welfare of the animals indicated earlier termination was necessary, following animal welfare regulations. Lungs were taken and moved to a pre-cooled 10-mL plastic tube (Transport Tube, Omnilabo, NL) containing 2 mL phosphate buffered saline (PBS; NaCl 8.00 g/L, Na2HPO4*2 H2O 1.44 g/L, KH2PO4 0.26 g/L, pH 7.2-7.4). Subsequently lungs were grounded using an Ultra-Turrax (IKA Labortechnik, Germany). A tenfold dilution series was prepared and 3×10 μL plated (Chromagar, Biomerieux, NL) per dilution. The following day, colonies were counted and the number of cfu per lung calculated.
This regimen was chosen because of the sensitivity to changes in effects of avibactam. The amount of avibactam administered varied in frequency and dose. […] The drug ? effect was determined as the difference between the log10 cfu values at t=24 h and t=0 h (mean value of 2 mice) expressed as dcfu. Free drug concentrations were used in all calculations. […] For avibactam % fT>CT, the % time of the dosing interval above threshold concentration CT were calculated for CT of 0.25, 1 and 4 mg/L. The CT values were chosen based on the activity of avibactam in vitro, 4 mg/L being used in susceptibility testing, but lower concentrations also being active as determined in in vitro checkerboard studies.

The test system of data set [2] is Gram-positive isolates. Nature of the data set: MIC alone compared with MIC in presence of Cmax and 0.5×Cmax of colistin, all Gram-positive isolates. It is filed as cell-based. The conditions noted are these: with Cmax and 0.5×Cmax of colistin.
Source text: A mean FICI was taken from each combination checkerboard and interpreted according to accepted criteria. […] Four highly-expressed AmpC, eight extended-spectrum beta-lactamase (ESBL) including two CTX-M-15 and five KPC producing Enterobacteriaceae and P. aeruginosa were included as well as representatives from each species with basal MICs. Three S. aureus and three E. faecalis were also included.
For data set [3], the system named is E. coli. Nature of the data set: Initial MIC, microbroth dilution (CLSI), avibactam 4 mg/L. Type of data set: cell-based. The conditions noted are these: Escherichia coli, read-out: MIC. From the text: All MIC determinations including those performed in the checkerboard assay were done in cation-adjusted Mueller-Hinton broth (purchased from Becton Dickinson, Oxford UK). […]
In general terms: Broth dilution looks for growth in wells or tubes with falling amounts of substance.

The test system of data set [4] is P. aeruginosa. Nature of the data set: In vivo efficacy, ceftazidime directed ELF fT>MIC regimen, neutropenic lung infection model (ICR mice). Also on record: species or system Pseudomonas aeruginosa. The settings on record: for Change log CFU Mean: 24 h. How it is done: (§1) It has been observed in surveillance studies that the MIC90 for ceftazidime-avibactam against P. aeruginosa is 8 μg/mL (10-12). Given this, there are few isolates with higher MICs and the number that would grow within the murine lung infection model is even less. […] Doses of the previous humanized regimen described above were […] throughout the dosing period and further pharmacokinetic studies were performed. […] Mice were euthanized and serum and BAL samples were collected, as described above, at predetermined times.
For these studies, 9 P. aeruginosa isolates were evaluated against the CAZ regimen in mice that yielded specific ELF fT>MIC. Doses were initiated 2 hours after inoculation of the test organisms ? and all doses were administered as 0.2 mL subcutaneous injections and consisted of three 8 hour dosing intervals (i.e. 24 hours). To serve as control animals, an additional group of mice were administered normal saline at the same volume, route, and frequency as the treatment regimen. The harvesting procedure for all study mice began with euthanization by CO2 exposure followed by cervical dislocation. After sacrifice, lungs were removed and individually homogenized in normal saline. Serial dilutions of the lung homogenate were plated on trypticase soy agar with 5% sheep blood for CFU determination. In addition to the above mentioned treatment and control groups, another group of 6 infected, untreated mice were harvested at the initiation of dosing and served as 0 h controls. Efficacy, designated as the change in bacterial density, was calculated as the change in log10 bacterial CFU obtained for treated mice after 24 h from that of that starting densities observed in 0 h control animals.

The subject of data set [5] is P. aeruginosa. The data set is described as follows: In vivo efficacy, ceftazidime human simulated regimen, neutropenic lung infection model (ICR mice). The settings on record: 24 h. Also on record: species or system Pseudomonas aeruginosa. How it is done: Groups of mice were administered the ceftazidime regimen beginning two hours after the initiation of infection. All doses were administered as 0.2 mL subcutaneous injections and consisted of three 8-hour dosing intervals (i.e. 24 hours). To serve as control animals, an additional group of mice were administered normal saline at the same volume, route, and frequency as the treatment regimen. Harvesting and processing of lungs from each animal was done as previously described and efficacy was defined as the change in bacterial density, calculated as the change in log10 bacterial CFU obtained for treated mice after 24 h from that of that starting densities observed in 0 h control animals.

Data set [6] is described as follows: Serum and ELF pharmacokinetics of ceftazidime regimens (human simulated and directed ELF fT>MIC) in infected mice. Type of data set: in vivo, female ICR mice. The conditions noted are these: MICs of 32 μg/mL; ceftazidime directed ELF fT>MIC regimen. How it is done: Confirmatory pharmacokinetic studies were undertaken in infected mice and pharmacodynamic analyses and an assessment of ELF fT>MIC was made from the resulting concentration-time profile.
as §1

Where [7] appears, read: q2h and q8h, strains 11 and 18, lung.

As for `NC(=O)[C@@H]1CC[C@@H]2CN1C(=O)N2OS(=O)(=O)[O-].[Na+]` [avibactam, [(2S,5R)-2-carbamoyl-7-oxo-1,6-diazabicyclo[3.2.1]octan-6-yl]hydrogen sulfate], the “efficacy by dosing frequency” value in data set [1] (avibactam q2h or q8h with ceftazidime q2h, lung) is “q2h regimen was more efficacious than the q8h regimen”. In addition, the “effect on static % fT>MIC of ceftazidime” value in data set [1] (lung infection, all strains) is listed as “reduced”. In addition, the “% fT > CT1 q2, mean” value in data set [1] (mean of strains 18 and 11 (sd 2.7), lung infection, avibactam q2h) was 21.6%. Moreover, the “% fT > CT1 q8, mean” value in data set [1] (mean of strains 18 and 11 (sd 3.4), lung infection, avibactam q8h) came out at 18.5%. Moreover, in data set [1] (setting [7]), the “overall mean % fT>CT 1 mg/L for static effect” value is 20.1% and the “range of % fT>CT 1 mg/L for static effect” value is given as 16.1-23.5. Besides, in data set [1] (strain 11, lung infection, avibactam q2h), the “% fT > CT1 q2” value came out at 19.7%. Further, the “% fT > CT1 q8” value in data set [1] (strain 11, lung infection, avibactam q8h) came out at 20.9%. Moreover, in data set [1] (strain 11, lung infection), the “TDD AVI q2h” value worked out at 45.65 mg/kg, the “TDD AVI q8h” value amounted to 463.29 mg/kg, the “log TDD AVI q2h” value stood at 1.66 mg/kg and the “log TDD AVI q8h” value amounted to 2.67 mg/kg. Moreover, the “factor by which daily dose for static effect was lower q2h than q8h” value in data set [1] (strain 11, lung) came out at 2.7. Besides, the “% fT > CT1 q2” value in data set [1] (strain 18, lung infection, avibactam q2h) is on record as 23.5%. Further, in data set [1] (strain 18, lung infection, avibactam q8h), the “% fT > CT1 q8” value amounted to 16.1%. Moreover, in data set [1] (strain 18, lung infection), the “TDD AVI q2h” value was determined as 56.65 mg/kg, the “TDD AVI q8h” value is listed as 150.57 mg/kg, the “log TDD AVI q2h” value was 1.75 mg/kg and the “log TDD AVI q8h” value is listed as 2.18 mg/kg. Further, the “factor by which daily dose for static effect was lower q2h than q8h” value in data set [1] (strain 18, lung) is given as 10.1. The “% fT>CT 1 mg/L estimates for stasis over 24 h” value in data set [1] (the other two of strains 7, 5, 19 and 1 (not 1 and 19), ceftazidime q2h, lung) was 21.4% and 19.4%. In data set [1] (two control strains, lung), the “% fT>CT 1 mg/L estimates” value was 22.4% and 21.6%.

Take `CC(C)(O/N=C(\C(=O)N[C@@H]1C(=O)N2C(C(=O)[O-])=C(C[n+]3ccccc3)CS[C@H]12)c1csc(N)n1)C(=O)O` [ceftazidime, (6R,7R)-7-[[(2Z)-2-(2-amino-1,3-thiazol-4-yl)-2-(1-hydroxy-2-methyl-1-oxopropan-2-yl)oxyiminoacetyl]amino]-8-oxo-3-(pyridin-1-ium-1-ylmethyl)-5-thia-1-azabicyclo[4.2.0]oct-2-ene-2-carboxylate pentahydrate]: the “MIC alone and in combination” value in data set [2] is listed as “remained within one doubling dilution in all cases”. For the same compound, the MIC in data set [3] (isolate 5 E. coli CTX-M-15) is 64 µg/mL; in data set [3] (isolate 6 E. coli TEM-4) it was 8 µg/mL; in data set [3] (isolate 7 E. coli SHV-12), 16 µg/mL; in data set [3] (isolate 8 E. coli SHV-2) it was 1 µg/mL. The “activity in neutropenic lung infection model” value is “Activity was observed” in data set [4] (directed ELF fT>MIC regimen, isolates with MICs of 32 μg/mL) and “Efficacy was variable; also recorded: little to no activity” in data set [4] (in vivo). Further, the “Change log CFU Mean” value in data set [4] (isolate PSA 968, control 0 h 5.98, 24 h 9.76) was found to be 4.45 log CFU; in data set [4] (isolate PSA 1382, control 0 h 5.91, 24 h 8.64), 6.42 log CFU; in data set [4] (isolate PSA 1383, control 0 h 5.77, 24 h 7.29) it was 3.73 log CFU; in data set [4] (isolate PSA 1384, control 0 h 5.86, 24 h 7.61) it was 4.4 log CFU; in data set [4] (isolate PSA 1386, control 0 h 5.79, 24 h 9.67), 5.98 log CFU; in data set [4] (isolate PSA 1387, control 0 h 6.39, 24 h 9.45), 4.23 log CFU. In addition, the “Change log CFU Mean” value in data set [4] (isolate PSA 1388, control 0 h 5.86, 24 h 8.39) was 5.54 log CFU; in data set [4] (isolate PSA 1389, control 0 h 5.68, 24 h 9.67), 6.3 log CFU; in data set [4] (isolate PSA 1394, control 0 h 5.58, 24 h 7.73) it was 5.96 log CFU; in data set [5] (isolate PSA 1-25, control 0 h 6.21, 24 h 10.01), 6.42 log CFU; in data set [5] (isolate PSA 3-9, control 0 h 6.45, 24 h 7.77) it was 6.48 log CFU; in data set [5] (isolate PSA 4-32, control 0 h 5.56, 24 h 9.34) it was 3.57 log CFU. In addition, the “Change log CFU Mean” value is given as 5.01 log CFU in data set [5] (isolate PSA 4-36, control 0 h 6.53, 24 h 9.72); 4.88 log CFU in data set [5] (isolate PSA 4-84, control 0 h 6.16, 24 h 9.66); 5.38 log CFU in data set [5] (isolate PSA 8-16, control 0 h 5.93, 24 h 9.94); 4.83 log CFU in data set [5] (isolate PSA 22, control 0 h 5.99, 24 h 9.15); 5.07 log CFU in data set [5] (isolate PSA 28-19, control 0 h 6.46, 24 h 9.8); 3.8 log CFU in data set [5] (isolate PSA 37-8, control 0 h 6.02, 24 h 8.26). For the same compound, the “ELF fT>MIC” value in data set [6] is 12%.
